Experimental data: patent US10927123B2, “Modulators of the beta-3 adrenergic receptor useful for the treatment or prevention of disorders related thereto” (Arena Pharmaceuticals, Inc., priority 2016, dated 2021)

Target: Beta-3 Adrenergic Receptor (Homo sapiens (Human), UniProt P13945)
Experiment: HTRF cAMP antagonist assay (IC50 determination)
Type: cell-based
Conditions: CHO-K1 cells stably expressing recombinant receptor; antagonism of isoproterenol at EC90; cAMP readout
How it was run: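 In this functional readout, recombinant CHO-K1 cells received compound, then isoproterenol at its EC90. After 1 h at room temperature, cAMP levels were determined by HTRF using an on-plate standard curve, and IC50 values were fitted.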

Beta-3 Adrenergic Receptor, sequence (P13945 whole entry, species assumed): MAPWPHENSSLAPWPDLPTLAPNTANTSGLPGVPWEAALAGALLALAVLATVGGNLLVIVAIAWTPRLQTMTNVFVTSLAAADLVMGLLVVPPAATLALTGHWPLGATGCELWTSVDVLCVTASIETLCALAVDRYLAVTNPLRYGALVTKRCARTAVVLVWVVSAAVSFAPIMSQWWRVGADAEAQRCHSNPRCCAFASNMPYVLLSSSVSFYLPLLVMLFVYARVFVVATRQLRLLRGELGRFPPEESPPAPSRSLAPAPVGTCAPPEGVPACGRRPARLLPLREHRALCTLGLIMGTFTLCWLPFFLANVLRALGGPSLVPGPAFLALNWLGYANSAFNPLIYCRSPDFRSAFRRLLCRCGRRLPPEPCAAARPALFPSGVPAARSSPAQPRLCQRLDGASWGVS

SMILES | IC50
CC(C)(CO)S(=O)(=O)c1cccc(OC[C@@H](O)CN[C@H]2COC3(CCN(S(=O)(=O)c4ccc5ncccc5c4)CC3)C2)c1 [Compound 109, 2-(3-((S)-2-hydroxy-3-((R)-8-(quinolin-6-ylsulfonyl)-1-oxa-8-azaspiro[4.5]decan-3-ylamino)propoxy)phenylsulfonyl)-2-methylpropan-1-ol] | 145 nM
O=S(=O)(CCO)c1cccc(OC[C@@H](O)CN[C@H]2COC3(CCN(S(=O)(=O)c4cccc(-c5cccnc5)c4)CC3)C2)c1 [Compound 97, (S)-1-(3-(2-hydroxyethylsulfonyl)phenoxy)-3-((R)-8-(3-(pyridin-3-yl)phenylsulfonyl)-1-oxa-8-azaspiro[4.5]decan-3-ylamino)propan-2-ol] | 212 nM
CC(C)(CN)c1ccc(-c2cccc(S(=O)(=O)N3CCC4(CC3)C[C@H](NC[C@H](O)COc3cccc(S(=O)(=O)C5(CO)CC5)c3)CO4)c2)cc1 [Compound 180, (S)-1-((S)-8-(4′-(1-amino-2-methylpropan-2-yl)biphenyl-3-ylsulfonyl)-1-oxa-8-azaspiro[4.5]decan-3-ylamino)-3-(3-(1-(hydroxymethyl)cyclopropylsulfonyl)phenoxy)propan-2-ol] | 30.7 nM
CCn1cc(S(=O)(=O)N2CCC3(CC2)C[C@@H](NC[C@H](O)COc2cccc(S(=O)(=O)C4CC4)c2)CO3)c(=O)c2cccc(F)c21 [Compound 333, 3-((R)-3-((S)-3-(3-(cyclopropylsulfonyl)phenoxy)-2-hydroxypropylamino)-1-oxa-8-azaspiro[4.5]decan-8-ylsulfonyl)-1-ethyl-8-fluoroquinolin-4(1H)-one] | 16.3 nM
O=S(=O)(c1cccc(OC[C@@H](O)CN[C@H]2COC3(CCN(S(=O)(=O)c4cnc5ccccc5c4)CC3)C2)c1)C1CCC1 [Compound 138, (S)-1-(3-(cyclobutylsulfonyl)phenoxy)-3-((R)-8-(quinolin-3-ylsulfonyl)-1-oxa-8-azaspiro[4.5]decan-3-ylamino)propan-2-ol] | 20.4 nM
CC(C)CNCc1ccc(-c2cccc(S(=O)(=O)N3CCC4(CC3)C[C@@H](NC[C@H](O)COc3cccc(S(=O)(=O)C5(CO)CC5)c3)CO4)c2)cc1 [Compound 272, (S)-1-(3-(1-(hydroxymethyl)cyclopropylsulfonyl)phenoxy)-3-((R)-8-(4′-((isobutylamino)methyl)biphenyl-3-ylsulfonyl)-1-oxa-8-azaspiro[4.5]decan-3-ylamino)propan-2-ol] | 566 nM
O=S(=O)(c1cccc(-c2ccc(CN3CCOCC3)cc2)c1)N1CCC2(CC1)C[C@H](NC[C@H](O)COc1cccc(S(=O)(=O)C3(CO)CC3)c1)CO2 [Compound 246, (S)-1-(3-(1-(hydroxymethyl)cyclopropylsulfonyl)phenoxy)-3-((S)-8-(4′-(morpholinomethyl)biphenyl-3-ylsulfonyl)-1-oxa-8-azaspiro[4.5]decan-3-ylamino)propan-2-ol] | 48.3 nM
CCCS(=O)(=O)c1cccc(OC[C@@H](O)CNC2COC3(CCN(S(=O)(=O)c4ccc5ccccc5c4)CC3)C2)c1 (stereo partly drawn) [Compound 6, (2S)-1-(8-(naphthalen-2-ylsulfonyl)-1-oxa-8-azaspiro[4.5]decan-3-ylamino)-3-(3-(propylsulfonyl)phenoxy)propan-2-ol] | 16.5 nM
COc1ccc(S(=O)(=O)N2CCC3(CC2)C[C@H](NC[C@H](O)COc2cccc(S(=O)(=O)C4(CO)CC4)c2)CO3)cc1-c1ccc(CCN)cc1 [Compound 215, (S)-1-((S)-8-(4′-(2-aminoethyl)-6-methoxybiphenyl-3-ylsulfonyl)-1-oxa-8-azaspiro[4.5]decan-3-ylamino)-3-(3-(1-(hydroxymethyl)cyclopropylsulfonyl)phenoxy)propan-2-ol] | 38.4 nM
NC1(c2ccc(-c3cccc(S(=O)(=O)N4CCC5(CC4)C[C@H](NC[C@H](O)COc4cccc(S(=O)(=O)C6(CO)CC6)c4)CO5)c3)cc2)CC1 [Compound 184, (S)-1-((S)-8-(4′-(1-aminocyclopropyl)biphenyl-3-ylsulfonyl)-1-oxa-8-azaspiro[4.5]decan-3-ylamino)-3-(3-(1-(hydroxymethyl)cyclopropylsulfonyl)phenoxy)propan-2-ol] | 26.7 nM
O=S(=O)(c1cccc(-c2ccc(CN3CCOCC3)cc2)c1)N1CCC2(CC1)C[C@@H](NC[C@H](O)COc1cccc(S(=O)(=O)C3(CO)CC3)c1)CO2 [Compound 266, (S)-1-(3-(1-(hydroxymethyl)cyclopropylsulfonyl)phenoxy)-3-((R)-8-(4′-(morpholinomethyl)biphenyl-3-ylsulfonyl)-1-oxa-8-azaspiro[4.5]decan-3-ylamino)propan-2-ol] | 1290 nM

Continued by falling IC50, values first:

IC50 | SMILES
354 nM | Cn1cc(-c2cncc(S(=O)(=O)N3CCC4(CC3)C[C@@H](NC[C@H](O)COc3cccc(S(=O)(=O)CCO)c3)CO4)c2)cn1 [Compound 90, (S)-1-(3-(2-hydroxyethylsulfonyl)phenoxy)-3-((R)-8-(5-(1-methyl-1H-pyrazol-4-yl)pyridin-3-ylsulfonyl)-1-oxa-8-azaspiro[4.5]decan-3-ylamino)propan-2-ol]
346 nM | O=S(=O)(c1cccnc1)N1CCC2(CC1)C[C@H](NC[C@H](O)COc1cccc(S(=O)(=O)C3(CO)CC3)c1)CO2 [Compound 202, (S)-1-(3-(1-(hydroxymethyl)cyclopropylsulfonyl)phenoxy)-3-((S)-8-(pyridin-3-ylsulfonyl)-1-oxa-8-azaspiro[4.5]decan-3-ylamino)propan-2-ol]
106 nM | NC(=O)CCS(=O)(=O)c1cccc(OC[C@@H](O)CN[C@H]2COC3(CCN(S(=O)(=O)c4cnc5ccccc5c4)CC3)C2)c1 [Compound 142, 3-(3-((S)-2-hydroxy-3-((R)-8-(quinolin-3-ylsulfonyl)-1-oxa-8-azaspiro[4.5]decan-3-ylamino)propoxy)phenylsulfonyl)propanamide]
92.2 nM | CCOc1ccc(-c2ccc(CN)cc2)cc1S(=O)(=O)N1CCC2(CC1)C[C@H](NC[C@H](O)COc1cccc(S(=O)(=O)CC(N)=O)c1)CO2 [Compound 205, 2-(3-((S)-3-((S)-8-(4′-(aminomethyl)-4-ethoxybiphenyl-3-ylsulfonyl)-1-oxa-8-azaspiro[4.5]decan-3-ylamino)-2-hydroxypropoxy)phenylsulfonyl)acetamide]
82.1 nM | CS(=O)(=O)c1cccc(OC[C@@H](O)CNC2COC3(CCN(S(=O)(=O)c4ccccc4)CC3)C2)c1 (stereo partly drawn) [Compound 47, (2S)-1-(3-(methylsulfonyl)phenoxy)-3-(8-(phenylsulfonyl)-1-oxa-8-azaspiro[4.5]decan-3-ylamino)propan-2-ol]
64.4 nM | CCOc1ccc(-c2ccc(CNC(C)C)cc2)cc1S(=O)(=O)N1CCC2(CC1)C[C@@H](NC[C@H](O)COc1cccc(S(=O)(=O)C3(CO)CC3)c1)CO2 [Compound 165, (S)-1-((R)-8-(4-ethoxy-4′-((isopropylamino)methyl)biphenyl-3-ylsulfonyl)-1-oxa-8-azaspiro[4.5]decan-3-ylamino)-3-(3-(1-(hydroxymethyl)cyclopropylsulfonyl)phenoxy)propan-2-ol]
61.2 nM | Cc1noc(C)c1S(=O)(=O)N1CCC2(CC1)CC(NC[C@H](O)COc1cccc(S(C)(=O)=O)c1)CO2 (stereo partly drawn) [Compound 52, (2S)-1-(8-(3,5-dimethylisoxazol-4-ylsulfonyl)-1-oxa-8-azaspiro[4.5]decan-3-ylamino)-3-(3-(methylsulfonyl)phenoxy)propan-2-ol]
44.8 nM | CS(=O)(=O)c1cccc(OC[C@H](O)CNC2COC3(CCN(S(=O)(=O)c4ccc5ccccc5c4)CC3)C2)c1 (stereo partly drawn) [Compound 2, (2R)-1-(3-(methylsulfonyl)phenoxy)-3-(8-(naphthalen-2-ylsulfonyl)-1-oxa-8-azaspiro[4.5]decan-3-ylamino)propan-2-ol]
38 nM | CS(=O)(=O)c1cccc(OC[C@@H](O)CNC2COC3(CCN(S(=O)(=O)c4ccc5c(c4)CCO5)CC3)C2)c1 (stereo partly drawn) [Compound 74, (2S)-1-(8-(2,3-dihydrobenzofuran-5-ylsulfonyl)-1-oxa-8-azaspiro[4.5]decan-3-ylamino)-3-(3-(methylsulfonyl)phenoxy)propan-2-ol]
29.8 nM | CS(=O)(=O)c1cccc(OC[C@@H](O)CNC2COC3(CCN(S(=O)(=O)c4ccc5occc5c4)CC3)C2)c1 (stereo partly drawn) [Compound 61, (2S)-1-(8-(benzofuran-5-ylsulfonyl)-1-oxa-8-azaspiro[4.5]decan-3-ylamino)-3-(3-(methylsulfonyl)phenoxy)propan-2-ol]
26.4 nM | NCc1ccc(-c2cc(S(=O)(=O)N3CCC4(CC3)C[C@@H](NC[C@H](O)COc3cccc(S(=O)(=O)C5(CO)CC5)c3)CO4)ccc2F)cc1 [Compound 216, (S)-1-((R)-8-(4′-(aminomethyl)-6-fluorobiphenyl-3-ylsulfonyl)-1-oxa-8-azaspiro[4.5]decan-3-ylamino)-3-(3-(1-(hydroxymethyl)cyclopropylsulfonyl)phenoxy)propan-2-ol]
23.7 nM | COCS(=O)(=O)c1cccc(OC[C@@H](O)CN[C@H]2COC3(CCN(S(=O)(=O)c4ccc5ncccc5c4)CC3)C2)c1 [Compound 131, (S)-1-(3-(methoxymethylsulfonyl)phenoxy)-3-((R)-8-(quinolin-6-ylsulfonyl)-1-oxa-8-azaspiro[4.5]decan-3-ylamino)propan-2-ol]
21.1 nM | CN1CCOc2ccc(S(=O)(=O)N3CCC4(CC3)CC(NC[C@H](O)COc3cccc(S(C)(=O)=O)c3)CO4)cc21 (stereo partly drawn) [Compound 32, (2S)-1-(8-(4-methyl-3,4-dihydro-2H-benzo[b][1,4]oxazin-6-ylsulfonyl)-1-oxa-8-azaspiro[4.5]decan-3-ylamino)-3-(3-(methylsulfonyl)phenoxy)propan-2-ol]
18.5 nM | CS(=O)(=O)c1cccc(OC[C@@H](O)CNC2COC3(CCN(S(=O)(=O)c4ccc5c(c4)CCCO5)CC3)C2)c1 (stereo partly drawn) [Compound 28, (2S)-1-(8-(chroman-6-ylsulfonyl)-1-oxa-8-azaspiro[4.5]decan-3-ylamino)-3-(3-(methylsulfonyl)phenoxy)propan-2-ol]
